“Also recorded” adds a separate entry of the source.
Experiments:
Caspase-3 = Caspase-3 fluorometric activity assay; format: cell-based, human; conditions: positive control, 0.5 nM; cell line not given
Experimental: Caspase-3 activity was assessed using a caspase-3/CPP32 fluorometric assay kit (Bio Vision, CA, USA) as described in the manufacturer's protocol, with some modifications. Briefly, SUM149 (5.0×10^4 cells/mL) and MDA-IBC3 (5.5×10^4 cells/mL) were seeded in 10 cm Petri dishes and transiently transfected with siRNAs as above described. Docetaxel (0.5 nM final concentration) was used as a positive control. Seventy-two hours post-transfection cells were collected, protein extracts were obtained and incubated with the Asp-Glu-Val-Asp (DEVD) peptide substrate—which is conjugated to the 7-amino-4-trifluoromethyl coumarin (AFC)—at 37° C. for 60 min. Releasing of AFC was measured with a fluorometric plate reader (Varioskan LUX, ThermoFisher, USA) at an excitation wavelength of 400 nm and an emission wavelength of 505 nm. The fold-change increase in caspase-3 activity was determined by comparing the release of AFC from the siRNA-transfected cells with the AFC release by the untreated cells.

SUM149 cells [1] = test: Colony formation (clonogenic) assay, SUM149 cells; format: cell-based, human; conditions: vs DMSO
Experimental: Cell growth was assessed by colony formation assays: MDA-IBC3 cells (5.5×10^4 cells/mL) or SUM149 (5.0×10^4 cells/mL) were seeded into 6-well plates. Twenty-four hours later, siRNAs were added to the cells. Twenty-four hours (MDA-IBC3 cells) or forty-eight hours (SUM149) after transfection, 1500 cells for MDA-IBC3 and 1000 cells for SUM149 were seeded into 10-cm Petri dishes containing Hams F-12 (10% FBS, 0.1% antibiotic/antimycotic solution, 0.001% insulin from bovine pancreas, and 0.005% hydrocortisone), and incubated at 37° C. Twelve days (SUM149 cells) or 19 days (MDA-IBC3 cells) later, colony-forming cells were stained with 0.5% crystal violet solution. Colonies (with at least 50 cells) were counted under a light microscope (Olympus CKX41) in five random fields with a total magnification of 10×.
(§1) For cell viability, SUM149 (5.0×10^4 cells/mL) were seeded in 96-well plates. Twenty-four hours later, cells were treated with serial dilutions (0.01 μM, 0.1 μM, 1.0 μM, 10 μM, and 100 μM, final concentrations) of the LCN2 inhibitors. Seventy-two hours after treatment, cell viability was performed as above described, taking the DMSO (1%) treated OD values as the normalization control. For colony formation assays, SUM149 cells (5.0×10^4 cells/mL), MCF7 (4.5×10^4 cells/mL), MCF7-LCN2 (4.5×10^4 cells/mL), or MCF7-EV (4.5×10^4 cells/mL) were seeded into 24-well plates and incubated at 37° C. Twenty-four hours later, LCN2 inhibitors bought to Asinex corporation (North chestnut, NC) were dissolved in DMSO (0.2%) and added to the cells at 10 μM, 1 μM, and 0.1 μM (final concentrations). NT cells and DMSO (0.2%) treated cells were used as controls. SUM149 (500 cells) and MCF7 (3,000 cells) cells were seeded in 6-well plates per treatment for colony formation assays.

MCF7-LCN2 cells = test: Colony formation assay, MCF7-LCN2 cells; format: cell-based, human; conditions: vs untreated cells
Experimental: (§2) Ectopic LCN2 expression was performed in breast cancer MCF7 cells. Human LCN2 open reading frame (LCN2ORF) (RC207685, OriGene, Rockville, MD) or empty vector pCMV6-Entry (MCF7-EV) (PS100001, OriGene, Rockville, MD was stable transfected into MCF7 cells. MCF7 cells (4.0×10^4 cells/mL) were seeded in 6-well plates and incubated at 37° C. Twenty-four hours later, 5 μg of LCN2-ORF were mixed with Lipofectamine 2000 RNAiMax transfection reagent (Life Technologies) at a 1:1 (v/v) (plasmid: transfection reagent) in serum and antibiotic-free Opti-MEM medium (Life Technologies) and incubated at 37° C. Six hours later medium was replaced with MCF7 culture media and incubated at 37° C. Forty-eight hours later the antibiotic neomycin was added at a final concentration of 1.8 mg/mL for the selection of transduced MCF7 cells. After 2-3 weeks, independent colonies were picked and cultured separately as independent clones.
as §1

p-Akt = test: Akt/p-Akt measurements by Western blot; format: cell-based, human; conditions: SUM149 cells; for total Akt protein levels: all doses and time-points tested
Experimental: Cell lysates were collected on ice using lysis buffer (1% Triton X, 150 mM NaCl, 25 mM Tris HCl,0.4 mM NaVO4, 0.4 mM NaF and protease inhibitor cocktail from Sigma, St. Louis, MO, USA) and vortexed periodically for 30 min. Lysates were centrifuged for 15 min at 4° C., and supernatants were collected. Total protein concentrations were determined using Bio-Rad DC Protein Assay reagents (Bio-Rad) following the manufacturer's protocol. Equal amounts of protein for each sample (40 μg to 50 μg per lane) were separated by SDS-PAGE, blotted onto nitrocellulose membranes, blocked with 5% non-fat milk, and probed with the appropriate dilution of the corresponding primary antibody. Once incubated with the primary antibody, membranes were rinsed and incubated with the corresponding HRP-conjugated secondary antibody. Bound antibodies were detected using an enhanced chemiluminescence substrate followed by autoradiography using a FluorChem™ 8900 (Alpha Innotech Corporation, San Leandro, CA, USA). Primary antibodies: anti-LCN2 (AF1757) (24 kDa), (R&D System, MN, USA); Caspase 9 (9502) (47 kDa), Caspase 3 (9665) (35 kDa), Cleaved Caspase 9 (20750) (37 kDa), Cleaved Caspase 3 (9664) (17/19 kDa), PARP-1 (46D11) (89,116 kDa), CDK4 (D9G3D) (30 kDa), CDK6 (DCS83) (36 kDa), Cyclin E1 (HE12) (48 kDa), Cyclin E2 (4132) (48 kDa), p21/Waf1/Cip1 (12D1) (21 kDa), p27/Kip1 (D69C12) (27 kDa), Akt (4685) (60 kDa), p-Akt (Ser473) (4060) (60 kDa) (Cell Signaling, Danvers, MA, USA); anti-β-actin (42 kDa) (Sigma). Secondary antibodies: anti-goat IgG horseradish peroxidase (HRP) (HAF 109) (R&D Systems), anti-mouse and anti-rabbit IgG (HRP) (Cell Signaling).
SUM149 cells (5.0×10^4 cells/mL) were seeded in 10-cm Petri plates and incubated at 37° C. Twenty-four hours later, cells were treated with the LCN2 inhibitors ZINC00784494 and ZINC00640089 at 10 μM and 1 μM concentrations. NT and DMSO (0.2% final concentration) treated cells were used as controls. Cell pellets of each condition were collected at 15 minutes, 1 hour, and 24 hours after drug treatment. The p-AKT Akt and Akt protein levels were assessed by Western blots as above described.

SUM149 cells [2] = test: Cell viability, Alamar Blue, SUM149 cells; format: cell-based; conditions: Homo sapiens, 72 hours, vs DMSO, read-out: reduction of cell viability
Experimental: MDA-IBC3 cells (5.5×10^4 cells/mL) or SUM149 (5.0×10^4 cells/mL) were seeded in 96-well plates. Twenty-four hours later, cells were transiently transfected with serial dilutions of LCN2-siRNA and NC-siRNA (12.5 nM, 25 nM, 50 nM, and 100 nM final concentrations) with Lipofectamine 2000 RNAiMax. Seventy-two hours after transfection, the medium was removed, and cell viability was measured using Alamar blue dye (Invitrogen, CA, USA) as previously described by. Optical density (OD) values were obtained spectrophotometrically in a plate reader (Bio-Rad) after 3 hours of dye incubation. In all cases, percentages of cell viability were obtained after blank OD subtraction, taking the untreated cells values as a normalization control.
For cell viability, SUM149 (5.0×10^4 cells/mL) were seeded in 96-well plates. Twenty-four hours later, cells were treated with serial dilutions (0.01 μM, 0.1 μM, 1.0 μM, 10 μM, and 100 μM, final concentrations) of the LCN2 inhibitors. Seventy-two hours after treatment, cell viability was performed as above described, taking the DMSO (1%) treated OD values as the normalization control. For colony formation assays, SUM149 cells (5.0×10^4 cells/mL), MCF7 (4.5×10^4 cells/mL), MCF7-LCN2 (4.5×10^4 cells/mL), or MCF7-EV (4.5×10^4 cells/mL) were seeded into 24-well plates and incubated at 37° C. […]

MCF7-EV cells = test: Colony formation assay, MCF7-EV cells; format: cell-based, human; conditions: 0.1 μM, 1 μM and 10 μM
Experimental: as §2
For cell viability, SUM149 (5.0×10^4 cells/mL) were seeded in 96-well plates. Twenty-four hours later, cells were treated with serial dilutions (0.01 μM, 0.1 μM, 1.0 μM, 10 μM, and 100 μM, final concentrations) of the LCN2 inhibitors. Seventy-two hours after treatment, cell viability was performed as above described, taking the DMSO (1%) treated OD values as the normalization control. […]

Structure (SMILES)	increase of caspase-3 activity (Caspase-3)	reduction in number of colonies formed (SUM149 cells [1]; 10 μM) [%]	decrease in colony formation (MCF7-LCN2 cells; 0.1 μM) [%]	decrease in colony formation (MCF7-LCN2 cells; 1 μM) [%]	decrease in colony formation (MCF7-LCN2 cells; 10 μM) [%]	p-AKT protein levels (p-Akt; 10 μM and 1 μM)	total Akt protein levels (p-Akt)	cytotoxicity at 10 µM (SUM149 cells [2]) [%]	p-Akt protein levels (p-Akt; 10 μM and 1 μM, 15 minutes and 1 hour after treatment, vs DMSO)	p-Akt protein levels (p-Akt; 24 hours after treatment)	reduction in number of colonies formed (SUM149 cells [1]; 1 μM) [%]	colony formation (MCF7-EV cells)
CC(=O)O[C@@]12CO[C@@H]1C[C@H](O)[C@@]1(C)C(=O)[C@H](O)C3=C(C)[C@@H](OC(=O)[C@H](O)[C@@H](NC(=O)OC(C)(C)C)c4ccccc4)C[C@@](O)([C@@H](OC(=O)c4ccccc4)[C@H]21)C3(C)C [Docetaxel]	two-fold increase	–	–	–	–	–	–	–	–	–	–	–
O=C(NC(Nc1ncccn1)C(=O)c1ccccc1)c1ccccc1 (stereo not drawn) [ZINC00230567]	–	62	–	–	–	–	–	–	–	–	–	–
O=C(CN1C(=O)c2cccc3cccc1c23)Nc1ccccc1C(F)(F)F [ZINC00640089]	–	42	24	54	57	reduced p-Akt in a dose-dependent manner; also recorded: reduction	unaltered	35	–	–	–	–
CC(=O)c1cccc(Nc2nc(-c3cc4ccccc4oc3=O)cs2)c1 [ZINC00784494]	–	37	23	41	49	reduced p-Akt in a dose-dependent manner	unaltered	57	reduced	not observed	43	did not cause any effect
Cc1cc(-c2ccccc2)nc2cc(C(=O)N3CCCc4ccccc43)nn12 [ZINC00829534]	–	41	–	–	–	–	–	–	–	–	–	–
